{"source": "patent US5135955A", "about": "“Propanamine derivatives” (Eli Lilly and Company, priority 1989, dated 1992)", "tested_on": "thromboplastin clotting time in human plasma", "assay": "prothrombin time test (thromboplastin clotting time in human plasma)", "assay_type": "biochemical", "settings": "for plasma prothrombin time: 37° C., human plasma", "description": "Briefly, to 0.1 ml of each of human plasma, normal saline and thromboplastin was added 0.03 ml of the test compound of the present invention (2 mg/ml in 50 percent methanol). The clotting time was measured at 37° C. with a Fibrometer.\n^a Expressed in seconds\n^b Concentration of compound tested in micrograms per milliliter of […]", "key": {"[1]": {"settings": "180 micrograms per milliliter of plasma"}, "[2]": {"settings": "45 micrograms per milliliter of plasma"}, "[3]": {"settings": "90 micrograms per milliliter of plasma"}, "[4]": {"settings": "22 micrograms per milliliter of plasma"}, "[5]": {"settings": "11 micrograms per milliliter of plasma"}}, "note": "Counter-ions that a name gives are not always drawn."}
{"smiles": "CCCCCCCCOc1ccc(CC(CN)c2ccc(-c3ccccc3)cc2)cc1", "note": "(racemic) [Example 11, (±)-β-[[4-(Octyloxy)phenyl]methyl][1,1'-biphenyl-4-ethanamine hydrochloride]", "values": [{"measurement": "plasma prothrombin time", "setting": "[1]", "value": 20, "unit": "s"}]}
{"smiles": "CCCCC(CC)COc1ccc(CC(CN)c2ccccc2)cc1.Cl", "note": "(stereo not drawn) [Example 3, 4-[(2-Ethylhexyl)oxy]-β-phenylbenzenepropanamine hydrochloride]", "values": [{"measurement": "prothrombin time", "setting": "28 micrograms per ml", "value": 16, "unit": "s"}, {"measurement": "prothrombin time", "setting": "69 micrograms per ml", "value": 25, "unit": "s"}, {"measurement": "prothrombin time", "setting": "139 micrograms per ml", "value": 80, "unit": "s"}]}
{"smiles": "CCCCCCCOc1ccc(CC(CN)c2ccccc2)cc1.Cl", "note": "(stereo not drawn) [Example 5, 4-(Heptyloxy)-β-phenylbenzenepropanamine hydrochloride]", "values": [{"measurement": "plasma prothrombin time", "setting": "[2]", "value": 25, "unit": "s"}, {"measurement": "plasma prothrombin time", "setting": "[3]", "value": 53, "unit": "s"}, {"measurement": "plasma prothrombin time", "setting": "[1]", "value": 190, "unit": "s"}]}
{"smiles": "Cl.NCC(Cc1ccc(-c2ccccc2)cc1)c1ccccc1", "note": "(stereo not drawn) [Example 7, β-Phenyl[1,1'-biphenyl]-4-propanamine hydrochloride]", "values": [{"measurement": "plasma prothrombin time", "setting": "[4]", "value": 25, "unit": "s"}, {"measurement": "plasma prothrombin time", "setting": "[2]", "value": 36, "unit": "s"}, {"measurement": "plasma prothrombin time", "setting": "[3]", "value": 200, "unit": "s"}, {"measurement": "plasma prothrombin time", "setting": "[1]", "value": "> 300", "unit": "s"}]}
{"smiles": "COc1ccc(C(CN)Cc2ccc(-c3ccccc3)cc2)cc1OC", "note": "(stereo not drawn) [Example 8, β-(3,4-Dimethoxy)phenyl[1,1'-biphenyl]-4-propanamine hydrochloride]", "values": [{"measurement": "plasma prothrombin time", "setting": "[2]", "value": 23, "unit": "s"}, {"measurement": "plasma prothrombin time", "setting": "[3]", "value": 45, "unit": "s"}, {"measurement": "plasma prothrombin time", "setting": "[1]", "value": 130, "unit": "s"}]}
{"smiles": "COc1ccc(C(CN)Cc2ccc(-c3ccccc3)cc2)cc1", "note": "(stereo not drawn) [Example 9, β-(4-Methoxy)phenyl[1,1'-biphenyl]-4-propanamine]", "values": [{"measurement": "plasma prothrombin time", "setting": "[1]", "value": 25, "unit": "s"}]}
{"smiles": "CCCCCCOc1ccc(CC(CN)c2ccc3ccccc3c2)cc1.Cl", "note": "(stereo not drawn) [Example 10, β-[[4-(Hexyloxy)phenyl]methyl]-2-naphthaleneethanamine hydrochloride]", "values": [{"measurement": "plasma prothrombin time", "setting": "[1]", "value": 60, "unit": "s"}]}
{"smiles": "CCCCCOc1ccc(CC(CN)c2ccc(-c3ccccc3)cc2)cc1.Cl", "note": "(stereo not drawn) [Example 12, β-[[4-(Pentyloxy)phenyl]methyl][1,1'-biphenyl]-4-ethanamine hydrochloride]", "values": [{"measurement": "plasma prothrombin time", "setting": "[2]", "value": 21, "unit": "s"}, {"measurement": "plasma prothrombin time", "setting": "[3]", "value": 33, "unit": "s"}, {"measurement": "plasma prothrombin time", "setting": "[1]", "value": 75, "unit": "s"}]}
{"smiles": "CCCCCCCOc1ccc(CC(CN)c2ccc(C(CN)Cc3ccc(OCCCCCCC)cc3)cc2)cc1.Cl.Cl", "note": "(stereo not drawn) [Example 13, β,β'-Bis[[4-(heptyloxy)phenyl]methyl]-1,4-benzenediethanamine dihydrochloride]", "values": [{"measurement": "plasma prothrombin time", "setting": "[1]", "value": 200, "unit": "s"}]}
{"smiles": "CC(C)c1ccc(CC(CN)c2ccccc2)cc1.Cl", "note": "(stereo not drawn) [Example 14, 4-(1-Methylethyl)-β-phenylbenzenepropanamine hydrochloride]", "values": [{"measurement": "plasma prothrombin time", "setting": "[1]", "value": 101, "unit": "s"}]}
{"smiles": "CCCCCOc1ccc(CC(CN)c2ccc(OC)c(OC)c2)cc1", "note": "(stereo not drawn) [Example 15, 4-(Pentyloxy)-β-3,4-(dimethoxy)phenylbenzenepropanamine]", "values": [{"measurement": "plasma prothrombin time", "setting": "[2]", "value": 21, "unit": "s"}, {"measurement": "plasma prothrombin time", "setting": "[3]", "value": 30, "unit": "s"}, {"measurement": "plasma prothrombin time", "setting": "[1]", "value": 80, "unit": "s"}]}
{"smiles": "CCCCCCCCOc1ccc(CC(CN)c2ccc(OC)c(OC)c2)cc1", "note": "(stereo not drawn) [Example 17, 4-(Octyloxy)-β-(3,4-dimethoxy)phenylbezenenepropanamine hydrochloride]", "values": [{"measurement": "plasma prothrombin time", "setting": "[4]", "value": 21, "unit": "s"}, {"measurement": "plasma prothrombin time", "setting": "[2]", "value": 48, "unit": "s"}, {"measurement": "plasma prothrombin time", "setting": "[3]", "value": 81, "unit": "s"}, {"measurement": "plasma prothrombin time", "setting": "[1]", "value": 240, "unit": "s"}]}
{"smiles": "CCCCCCCCOc1ccc(CC(CN)c2cc(OC)c(OC)c(OC)c2)cc1", "note": "(stereo not drawn) [Example 18, 4-(Octyloxy)-β-(3,4,5-trimethoxy)phenylbenzenepropanamine hydrochloride]", "values": [{"measurement": "plasma prothrombin time", "setting": "[1]", "value": 125, "unit": "s"}]}
{"smiles": "CCCCCOc1ccc(CC(CN)c2ccc(OC)c(OC)c2OC)cc1", "note": "(stereo not drawn) [Example 19, 4-(Pentyloxy)-β-(2,3,4-trimethoxy)phenylbenzenepropanamine hydrochloride]", "values": [{"measurement": "plasma prothrombin time", "setting": "[1]", "value": 174, "unit": "s"}]}
{"smiles": "CCCCCCCOc1ccc(CC(CN)c2ccc(OC)c(OC)c2)cc1", "note": "(stereo not drawn) [Example 20, 4-(Heptyloxy)-β-(3,4-dimethoxy)phenylbenzenepropanamine]", "values": [{"measurement": "plasma prothrombin time", "setting": "[2]", "value": 36, "unit": "s"}, {"measurement": "plasma prothrombin time", "setting": "[3]", "value": 74, "unit": "s"}, {"measurement": "plasma prothrombin time", "setting": "[1]", "value": "> 200", "unit": "s"}]}
{"smiles": "COc1ccc(C(CN)Cc2ccc(OC)c3ccccc23)cc1OC", "note": "(stereo not drawn) [Example 23, β(3,4-Dimethoxy)phenyl-1-(4-methoxy)naphthalenepropanamine hydrochloride]", "values": [{"measurement": "plasma prothrombin time", "setting": "[1]", "value": 101, "unit": "s"}]}
{"smiles": "COc1ccc(C(CN)Cc2cccc3ccccc23)cc1", "note": "(stereo not drawn) [Example 24, β-(4-Methoxy)phenyl-1-naphthalenepropanamine]", "values": [{"measurement": "plasma prothrombin time", "setting": "[2]", "value": 22, "unit": "s"}, {"measurement": "plasma prothrombin time", "setting": "[3]", "value": 28, "unit": "s"}, {"measurement": "plasma prothrombin time", "setting": "[1]", "value": 48, "unit": "s"}]}
{"smiles": "COc1cccc(C(CN)Cc2ccc3ccccc3c2)c1OC", "note": "(stereo not drawn) [Example 25, β-(2,3-Dimethoxyphenyl)-2-naphthalenepropanamine]", "values": [{"measurement": "plasma prothrombin time", "setting": "[2]", "value": 22, "unit": "s"}, {"measurement": "plasma prothrombin time", "setting": "[3]", "value": 29, "unit": "s"}, {"measurement": "plasma prothrombin time", "setting": "[1]", "value": 50, "unit": "s"}]}
{"smiles": "CCCCCCOc1ccc(CC(CNCC)c2ccccc2)cc1", "note": "(stereo not drawn) [Example 28, N-Ethyl-4-(hexyloxy)-β-phenylbenzenepropanamine]", "values": [{"measurement": "plasma prothrombin time", "setting": "[4]", "value": 17, "unit": "s"}, {"measurement": "plasma prothrombin time", "setting": "[2]", "value": 23, "unit": "s"}, {"measurement": "plasma prothrombin time", "setting": "[3]", "value": 35, "unit": "s"}, {"measurement": "plasma prothrombin time", "setting": "[1]", "value": 110, "unit": "s"}]}
{"smiles": "CCCCCCOc1ccc(CC(CNC)c2ccccc2)cc1", "note": "(stereo not drawn) [Example 29, N-Methyl-4-(hexyloxy)-β-phenylbenzenepropanamine]", "values": [{"measurement": "plasma prothrombin time", "setting": "[2]", "value": 17, "unit": "s"}, {"measurement": "plasma prothrombin time", "setting": "[3]", "value": 31, "unit": "s"}, {"measurement": "plasma prothrombin time", "setting": "[1]", "value": 87, "unit": "s"}]}
{"smiles": "CCCCCCOc1ccc(CC(CNC(C)C)c2ccccc2)cc1.Cl", "note": "(stereo not drawn) [Example 30, N-Isopropyl-4-(hexyloxy)-β-phenylbenzenepropanamine hydrochloride]", "values": [{"measurement": "plasma prothrombin time", "setting": "[1]", "value": 69, "unit": "s"}]}
{"smiles": "CCCCCCOc1ccc(CC(CNCCN(C)C)c2cc(OC)c(OC)c(OC)c2)cc1.Cl.Cl", "note": "(stereo not drawn) [Example 31, N'-[3-[4-(Hexyloxy)phenyl]-2-(3,4,5-trimethoxyphenyl)-propyl]-N,N-dimethyl-1,2-ethanediamine dihydrochloride]", "values": [{"measurement": "plasma prothrombin time", "setting": "[1]", "value": 150, "unit": "s"}]}
{"smiles": "Cl.NCC(Cc1ccc2c(c1)OCO2)c1ccc(-c2ccccc2)cc1", "note": "(stereo not drawn) [Example 32, β-[1,1'-Biphenyl]-4-yl-1,3-benzodioxole-5-propanamine hydrochloride]", "values": [{"measurement": "plasma prothrombin time", "setting": "[2]", "value": 27, "unit": "s"}, {"measurement": "plasma prothrombin time", "setting": "[3]", "value": 66, "unit": "s"}, {"measurement": "plasma prothrombin time", "setting": "[1]", "value": 222, "unit": "s"}]}
{"smiles": "CNCC(Cc1ccc2c(c1)OCO2)c1ccccc1.Cl", "note": "(stereo not drawn) [Example 33, N-Methyl-β-phenyl-1,3-benzodioxole-5-propanamine hydrochloride]", "values": [{"measurement": "plasma prothrombin time", "setting": "[1]", "value": 18, "unit": "s"}]}
{"smiles": "Cl.NCC(Cc1ccc2c(c1)OCO2)c1ccccc1", "note": "(stereo not drawn) [Example 34, β-Phenyl-1,3-benzodioxole-5-propanamine hydrochloride]", "values": [{"measurement": "plasma prothrombin time", "setting": "[1]", "value": 21, "unit": "s"}]}
{"smiles": "NCC(Cc1ccc(C(F)(F)F)cc1)c1ccccc1", "note": "(stereo not drawn) [Example 35, β-Phenyl-4-(trifluoromethyl)benzenepropanamine]", "values": [{"measurement": "plasma prothrombin time", "setting": "[1]", "value": 68, "unit": "s"}]}
{"smiles": "NC(CCc1ccc(OCC2CCCCC2)cc1)C1CC1", "note": "(stereo not drawn) [Example 37, 4-(Cyclohexylmethoxy)-α-cyclopropylbenzenepropanamine hydrochloride]", "values": [{"measurement": "plasma prothrombin time", "setting": "[5]", "value": 22, "unit": "s"}]}
{"smiles": "CCC(CCc1ccc(OCC2CCCCC2)cc1)N(C)C", "note": "(stereo not drawn) [Example 38, 4-(Cyclohexylmethoxy)-α-ethyl-N,N-dimethylbenzenepropanamine hydrochloride]", "values": [{"measurement": "plasma prothrombin time", "setting": "[5]", "value": 22, "unit": "s"}]}
